Data set [1] deals with wild-type hDAAO. On the set-up: method as in Molla et al. (2006) and Murtas et al. (2017). The conditions noted are these: air saturation, 25°C, pH 8.5, ref Molla et al. (2006) and Murtas et al. (2017), cited from earlier work; for Km: read-out: apparent Km.
Data set [2] has as its target T1, R120L hDAAO variant (Homo sapiens, UniProt P14920, R120L).
T1 construct: His-tag (N); made in house; host or cells: E. coli BL21 (DE3) Star
In words: Apparent kinetic parameters on D-amino acids (oxygen electrode), R120L hDAAO. It is filed as biochemical. The note with it: air saturation, 25°C, pH 8.5, 0.2 mM FAD. The protocol:
(§1) The kinetic parameters were determined on different D-amino acids, employing increasing substrate concentrations (Molla et al., [2000], [2006]). The apparent kinetic parameters were calculated using the initial reaction rate according to a Michaelis–Menten equation using the Kaleidagraph software (Synergy Software, Reading, PA, USA).
(§2) The apparent kinetic parameters were calculated according to a Michaelis–Menten equation using the initial velocity values determined at increasing D-amino acid concentrations and a fixed O2 concentration (air saturation) at pH 8.5 and 25°C, in the presence of 0.2 mM FAD to avoid apoprotein formation for wild-type hDAAO.

The target of data set [3] is T2, R120E hDAAO variant (Homo sapiens, UniProt P14920, R120E).
T2 construct: His-tag (N); made in house; host or cells: E. coli BL21 (DE3) Star
In words: Apparent kinetic parameters on D-amino acids (oxygen electrode), R120E hDAAO. It is filed as biochemical. The conditions noted are these: air saturation, 25°C, pH 8.5, 0.2 mM FAD. The protocol:
as §1, §2

Data set [4] in a line: Standard DAAO activity assay of purified hDAAO variants (oxygen electrode, 28 mM D-alanine). It is filed as biochemical. The conditions noted are these: pH 8.5, 25°C.
The test system of another data set is U87 glioblastoma cells. Description: Confocal analysis of cellular distribution of EYFP-hDAAO variants in transiently transfected U87 cells. It is filed as cell-based, human. The protocol: Human U87 glioblastoma cells (ATCC) were cultured in DMEM supplemented with 10% fetal bovine serum, 1 mM sodium pyruvate, 2 mM L-glutamine, 1% non-essential amino acids, 1% penicillin/streptomycin, and 1% amphotericin B (Euroclone), at 37°C in 5% CO2. The cells were transfected either with the pEYFP-hDAAO-C3 construct (for the expression of the wild-type enzyme downstream of the enhanced yellow fluorescent protein, EYFP) (Sacchi et al., [2008], [2011]), the pEYFP-hDAAO(R120L)-C3, or the pEYFP-hDAAO(R120E)-C3 expression vectors. The latter constructs were obtained by mutagenesis using the QuikChange Lightning Site-Directed Mutagenesis Kit (Agilent), and the following primers: 5′-[…]-3′ and 5′-[…]-3′ for the R120E substitution, and 5-[…]-3′ and 5′-[…]-3′ for the R120L substitution.
For transient transfection, 2 ×10^4 cells were seeded into eight-well chamber slides (Sarstedt). At 24 h after seeding, cells were transfected with 2 μg plasmid DNA using a 4:1 ratio of FuGENE transfection reagent (Promega) to DNA. Then, 12.5 μL of transfection mix was added to 500 μL medium per well. Protein expression levels were monitored by using a fluorescence microscope (Olympus IX51) equipped with a FITC filter and by Western blot analysis using an anti-hDAAO antibody (Davids Biotechnologie) (Sacchi et al., [2008], [2011]).
At 24, 48, and 72 h after transfection, cells were washed twice with PBS and fixed with ice-cold 4% p-formaldehyde and 4% sucrose for 10 min at room temperature. After fixation, cells were washed twice with PBS and blocked by incubation in PBS supplemented with 0.2% Triton X-100 and 4% horse serum for 30 min at room temperature. Peroxisomes were stained using rabbit polyclonal anti-PMP70 (peroxisomal membrane protein 70, Sigma), diluted 1:500 in PBS, 0.1% Triton X-100, and 4% horse serum overnight at 4°C; they were then washed twice in PBS and 1% horse serum and incubated for 1 h at room temperature (light protected) with goat anti-rabbit Dylight 550 secondary antibodies (Abcam) diluted 1:400 in PBS, 0.1% Triton X-100, and 1.5% horse serum. Cells were then extensively washed in PBS and nuclei were stained with DRAQ5™ (Thermo Scientific) and diluted 1:500 in PBS for 10 min at room temperature in the dark. Cells were washed three times with PBS and stored in PBS at 4°C until imaging.
Immunostained cells were imaged using an inverted laser scanning confocal microscope (TCS SP5, Leica Microsystems), equipped with a 63.0 ×1.25 NA plan apochromatic oil immersion objective. Confocal image stacks were acquired using the Leica TCS software with a sequential mode to avoid interference between each channel and without saturating any pixel. Cells in 10–15 non-magnified optical fields were analyzed for each condition (i.e., different EYFP-hDAAO expression constructs at different times after transfection). The fluorescence signal corresponding to the overexpressed EYFP-hDAAO variants was monitored by excitation at 514 nm (yellow channel); the peroxisomal and nuclear cellular compartments were imaged by excitation at 546 nm (red channel) and 647 nm (blue channel), respectively.
U87 glioblastoma cells were transiently transfected with a pEYFP-hDAAO-C3 plasmid encoding for EYFP-hDAAO chimeric proteins harboring R, E, or L at position 120 of the flavoenzyme. […] A similar amount of transfected cells (expressing EYFP-hDAAO protein) was obtained for all three constructs (Table 4). The percentage of cells showing a cytosolic, peroxisomal, and nuclear localization of the flavoenzyme was determined by comparing the yellow fluorescence signal of EYFP-hDAAO variants with those of the markers PMP-70 (for peroxisomes) and DRAQ5™ dye (for nuclei, Figure 5). The amount of cytosolic wild-type EYFP-hDAAO decreased with time after transfection (28% of the signal is cytosolic at 72 h vs. 94% at 24 h), as did the amount of nuclear signal (Table 4 and Figure 6). […]

Data set [5] has as its target T2, R120E hDAAO variant. In words: FAD and ligand binding by quenching of protein fluorescence, R120E hDAAO. The protocol:
(§3) Protein fluorescence spectra were recorded between 300 and 400 nm, with excitation at 280 nm using a Jasco FP-750 instrument (excitation slit of 10 nm; emission slit of 5 nm) in 10 mM potassium phosphate, pH 8.0, 1% (v/v) glycerol, 5 mM 2-mercaptoethanol, […]

Data set [6] has as its target wild-type hDAAO. The conditions noted are these: cited from earlier work.
Data set [7] has as its target T1, R120L hDAAO variant. Description: FAD and ligand binding by quenching of protein fluorescence, R120L hDAAO. The protocol:
as §3

Setting [8] is: read-out: Benzoate Kd, first saturation phase.
Where [9] appears, read: read-out: Benzoate Kd, second saturation phase.

Like-named read-outs stand apart in the source and are kept apart here.

T2 sequence (P14920 whole entry R120E): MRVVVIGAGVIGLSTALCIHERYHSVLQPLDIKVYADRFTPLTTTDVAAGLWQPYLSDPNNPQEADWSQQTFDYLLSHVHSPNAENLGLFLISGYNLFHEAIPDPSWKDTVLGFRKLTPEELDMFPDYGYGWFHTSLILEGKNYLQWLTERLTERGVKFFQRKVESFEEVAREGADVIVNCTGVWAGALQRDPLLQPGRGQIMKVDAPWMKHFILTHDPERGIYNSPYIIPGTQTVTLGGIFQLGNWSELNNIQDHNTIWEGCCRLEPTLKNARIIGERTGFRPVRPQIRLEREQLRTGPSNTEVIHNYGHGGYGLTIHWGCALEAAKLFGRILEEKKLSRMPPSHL
T1 sequence (P14920 whole entry R120L): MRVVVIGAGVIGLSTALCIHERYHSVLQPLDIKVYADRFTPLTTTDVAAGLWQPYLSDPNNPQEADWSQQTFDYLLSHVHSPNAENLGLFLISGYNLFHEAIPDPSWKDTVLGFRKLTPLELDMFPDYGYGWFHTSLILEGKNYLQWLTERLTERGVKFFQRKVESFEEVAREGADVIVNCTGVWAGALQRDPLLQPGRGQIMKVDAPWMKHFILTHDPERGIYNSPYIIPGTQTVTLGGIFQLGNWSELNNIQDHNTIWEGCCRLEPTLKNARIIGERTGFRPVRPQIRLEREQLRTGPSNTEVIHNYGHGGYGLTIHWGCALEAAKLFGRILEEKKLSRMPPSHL

As usually defined, the Km is the substrate concentration at which the rate is half of its maximum. With `N[C@H](CO)C(=O)O` [D-Ser, D-serine], the apparent kcat with wild-type hDAAO [1] was 3.0 ± 0.1 s⁻¹; on R120L hDAAO variant [2], 11.3 ± 0.4 s⁻¹; at R120E hDAAO variant [3], 8.5 ± 0.4 s⁻¹. In addition, the Km in the data set with wild-type hDAAO [1] is 7500 ± 500 µM; on R120L hDAAO variant [2], 26700 ± 4500 µM; at R120E hDAAO variant [3], 17600 ± 3500 µM.
On to `N[C@H](CS)C(=O)O` [D-Cys, D-cysteine], for which the apparent kcat in the data set on wild-type hDAAO [1] was 8.6 ± 0.2 s⁻¹; at R120L hDAAO variant [2], 15.6 ± 0.7 s⁻¹; on R120E hDAAO variant [3], 9.9 ± 0.5 s⁻¹. In addition, the Km in the data set on wild-type hDAAO [1] is 600 ± 100 µM; on R120L hDAAO variant [2] it was 700 ± 100 µM; on R120E hDAAO variant [3], 600 ± 100 µM.
As to “R120L: hDAAO variant with Arg120 substituted by leucine (His-tagged from E. coli; EYFP-tagged in U87 cells)”, in data set [4], the Specific activity amounted to 17.6 U/mg protein. In the data set with U87 glioblastoma cells (24 h after transfection), the “hDAAO cellular distribution: A, large cytosolic aggregates detected” value is given as 41.5 % of transfected cells; the “hDAAO cellular distribution: C, cytosol” value is recorded as 93.1 % of transfected cells; the “hDAAO cellular distribution: C/P, mixed, cytosol and peroxisomes” value (“hDAAO cellular distribution: C/P, mixed” below) is 3.8 % of transfected cells; the “hDAAO cellular distribution: N, nucleus” value is 20.8 % of transfected cells. Moreover, the “hDAAO cellular distribution: P, peroxisomes” value (shortened to “hDAAO cellular distribution: P”) in the data set with U87 glioblastoma cells (24 h after transfection) was 3.1 % of transfected cells. Also, in the data set on U87 glioblastoma cells (48 h after transfection), the “hDAAO cellular distribution: A, large cytosolic aggregates detected” value is recorded as 22.6 % of transfected cells; the “hDAAO cellular distribution: C, cytosol” value is 59.7 % of transfected cells; the “hDAAO cellular distribution: C/P, mixed” value is reported as 21.0 % of transfected cells; the “hDAAO cellular distribution: N, nucleus” value is listed as 20.2 % of transfected cells. Also, the “hDAAO cellular distribution: P” value with U87 glioblastoma cells (48 h after transfection) is given as 19.4 % of transfected cells. In addition, in the data set with U87 glioblastoma cells (72 h after transfection), the “hDAAO cellular distribution: A, large cytosolic aggregates detected” value is on record as 35.6 % of transfected cells; the “hDAAO cellular distribution: C, cytosol” value is reported as 45.5 % of transfected cells; the “hDAAO cellular distribution: C/P, mixed” value is recorded as 21.2 % of transfected cells; the “hDAAO cellular distribution: N, nucleus” value was 13.1 % of transfected cells. The “hDAAO cellular distribution: P” value in the data set on U87 glioblastoma cells (72 h after transfection) is given as 34.3 % of transfected cells.
The compound “R120E: hDAAO variant with Arg120 substituted by glutamate (His-tagged from E. coli; EYFP-tagged in U87 cells)” gave a Specific activity in data set [4] of 21.0 U/mg protein. Also, in the data set with U87 glioblastoma cells (24 h after transfection), the “hDAAO cellular distribution: A, large cytosolic aggregates detected” value is 29.7 % of transfected cells; the “hDAAO cellular distribution: C, cytosol” value is given as 86.7 % of transfected cells; the “hDAAO cellular distribution: C/P, mixed” value is given as 7.8 % of transfected cells; the “hDAAO cellular distribution: N, nucleus” value is given as 36.7 % of transfected cells. Moreover, in the data set on U87 glioblastoma cells (24 h after transfection), the “hDAAO cellular distribution: P” value is reported as 6.3 % of transfected cells. Further, in the data set on U87 glioblastoma cells (48 h after transfection), the “hDAAO cellular distribution: A, large cytosolic aggregates detected” value is listed as 31.3 % of transfected cells; the “hDAAO cellular distribution: C, cytosol” value is recorded as 56.7 % of transfected cells; the “hDAAO cellular distribution: C/P, mixed” value is given as 14.9 % of transfected cells; the “hDAAO cellular distribution: N, nucleus” value is 27.6 % of transfected cells. For the same compound, the “hDAAO cellular distribution: P” value in the data set on U87 glioblastoma cells (48 h after transfection) is 28.4 % of transfected cells. Further, in the data set with U87 glioblastoma cells (72 h after transfection), the “hDAAO cellular distribution: A, large cytosolic aggregates detected” value was 18.2 % of transfected cells; the “hDAAO cellular distribution: C, cytosol” value was 40.3 % of transfected cells; the “hDAAO cellular distribution: C/P, mixed” value was 18.2 % of transfected cells; the “hDAAO cellular distribution: N, nucleus” value is reported as 24.0 % of transfected cells. The “hDAAO cellular distribution: P” value in the data set on U87 glioblastoma cells (72 h after transfection) was 41.6 % of transfected cells.
Turning to `C[C@@H](N)C(=O)O` [D-Ala, D-alanine], in the data set with wild-type hDAAO [1], the apparent kcat is 5.2 ± 0.1 s⁻¹ and the Km was 1300 ± 200 µM.
Take `O=C(O)c1ccccc1` [Benzoate, benzoate]: the Kd on R120E hDAAO variant [5] (setting [8]) is 0.16 ± 0.01 µM; on R120E hDAAO variant [5] (setting [9]), 7980 µM; on R120E hDAAO variant [5] (read-out: Kd for the second phase of binding) it was around 8000 µM; at wild-type hDAAO [6] (ref Murtas et al. (2017), read-out: Benzoate Kd, first saturation phase) it was 0.33 ± 0.04 µM; on wild-type hDAAO [6] (ref Murtas et al. (2017), read-out: Benzoate Kd, second saturation phase) it was 2590 µM; on wild-type hDAAO [6] (ref Murtas et al., 2017, read-out: Kd for the second phase of binding), 2600 µM. Moreover, the Kd at R120L hDAAO variant [7] (setting [8]) is 0.27 ± 0.12 µM; on R120L hDAAO variant [7] (setting [9]), 6200 µM.

These data come from article PMC6862323, “Substitution of Arginine 120 in Human D-Amino Acid Oxidase Favors FAD-Binding and Nuclear Mistargeting” (Frontiers in Molecular Biosciences, 2019).
